Earlier results as cited in patent US6943160B2, “Morpholine derivatives as antagonists of orexin receptors” (SmithKline Beecham plc, priority 2000, dated 2005).

What was measured:
freely-feeding rats = details: central administration, 4 hour time period
orexin receptors = details: central administration at onset of normal sleep period, rat

orexin-A: ligand (agonist) of the orexin receptors; human orexin-A has sequence SEQ ID NO: 1, pyroEPLPDCCRQKTCSCRLYELLHGAGNHAAGILTL-NH2
increase in food intake over control rats receiving vehicle (freely-feeding rats): approximately four-fold
effect on arousal (orexin receptors): dose-related increase in arousal
